In the supplement of paper PMC4862054:

How the values were obtained:
MDA-MB-453 [1] = details: 72 h
How it was run: (§1)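 Plates of 384 wells holding compound in 5 µl medium received breast cancer cell lines in 20 µl suspension and were incubated 72 h. CellTiter-Blue (2.5 µl, 2 h, 37 °C) was used for viability, read at 560/590 nm, and every plate was normalised to vehicle and a positive kill control and assessed by Z'-factor. The EC50 derives from a percent-inhibition dose-response curve fit censored at the highest concentration, leaving out rows whose drug sensitivity score was zero.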

CAL-148 [2] = details: 72 h
How it was run: as §1

DU-4475 = test: normalised response (% of control), CellTiter-Glo; higher = more viable cells (100 = DMSO, 0 = benzethonium chloride kill control); details: incubation time: 72 h
How it was run: (§2)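 Compound was dispensed into 384-well plates at 5 concentrations in 10-fold steps spanning a 10,000-fold range specific to that compound. Breast cancer cell lines were added as 20 µl suspension and left for 72 h before CellTox Green fluorescence (485/520 nm) and then CellTiter-Glo luminescence, read after 10 min at room temperature. Each reported value is the normalised signal at one concentration, with 0.1 % DMSO set at 100 and a positive kill control at 0 on each plate.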

BT-549 = test: as above; details: incubation time: 72 h
How it was run: as §2

MDA-MB-453 [3] = test: as above; details: incubation time: 72 h
How it was run: as §2

BT-474 = test: as above; details: incubation time: 72 h
How it was run: as §2

CAL-120 = test: as above; details: incubation time: 72 h
How it was run: as §2

CAL-51 = test: as above; details: incubation time: 72 h
How it was run: as §2

CAL-148 [4] = test: as above; details: incubation time: 72 h
How it was run: as §2

MCF-10A = test: as above; details: incubation time: 72 h
How it was run: as §2

MDA-MB-231 = test: as above; details: incubation time: 72 h
How it was run: as §2

HDQ-P1 = test: as above; details: incubation time: 72 h
How it was run: as §2

CAL-85-1 = test: as above; details: incubation time: 72 h
How it was run: as §2

Hs578T = test: as above; details: incubation time: 72 h
How it was run: as §2

MFM-223 = test: as above; details: incubation time: 72 h
How it was run: as §2

HCC1599 = test: as above; details: incubation time: 72 h
How it was run: as §2

EC50, CellTiter-Blue viability (MDA-MB-453 [1]) [nM] | SMILES | EC50, CellTiter-Blue viability (CAL-148 [2]) [nM] | normalised response (DU-4475) [%] | normalised response (BT-549) [%] | normalised response (MDA-MB-453 [3]) [%] | normalised response (BT-474) [%] | normalised response (CAL-120) [%] | normalised response (CAL-51) [%] | normalised response (CAL-148 [4]) [%] | normalised response (MCF-10A) [%] | normalised response (MDA-MB-231) [%] | normalised response (HDQ-P1) [%] | normalised response (CAL-85-1) [%] | normalised response (Hs578T) [%] | normalised response (MFM-223) [%] | normalised response (HCC1599) [%]
5.76 | Cc1ccc(C(=O)N(CCCN)[C@@H](c2oc3cc(Cl)ccc3c(=O)c2Cc2ccccc2)C(C)C)cc1 | 5.81 | – | – | – | – | – | – | – | – | – | – | – | – | – | –
– | Cc1ccc(C(=O)N(CCCN)[C@@H](c2oc3cc(Cl)ccc3c(=O)c2Cc2ccccc2)C(C)C)cc1 (100 nM) | – | 92.8 | 99.6 | 91.6 | 95.6 | 103 | 72.3 | 88.9 | 96.8 | 93 | 104 | 97.8 | 100 | 97.2 | 97.5
232 | NC(=O)Nc1cc(-c2cccc(F)c2)sc1C(=O)N[C@H]1CCCNC1 [AZD 7762] | 661 | – | – | – | – | – | – | – | – | – | – | – | – | – | –
11.2 | CO[C@H]1/C=C\C=C(/C)C(=O)NC2=CC(=O)C(NCCN(C)C)=C(C[C@@H](C)C[C@H](OC)[C@H](O)[C@@H](C)/C=C(\C)[C@@H]1OC(N)=O)C2=O [Alvespimycin] | 27.6 | – | – | – | – | – | – | – | – | – | – | – | – | – | –
– | CO[C@H]1/C=C\C=C(/C)C(=O)NC2=CC(=O)C(NCCN(C)C)=C(C[C@@H](C)C[C@H](OC)[C@H](O)[C@@H](C)/C=C(\C)[C@@H]1OC(N)=O)C2=O [Alvespimycin] (1000 nM) | – | 0.05 | 39.5 | 28.1 | 28 | 47.8 | 16.2 | 26.3 | 15.4 | 19 | 22.4 | 18.1 | 35.4 | 39.2 | 58.8
– | CCC1(c2ccc(N)cc2)CCC(=O)NC1=O (centres undefined) [Aminoglutethimide] (10000 nM) | – | 101 | 98.1 | 101 | 105 | 109 | 145 | 108 | 101 | 103 | 102 | 106 | 95.1 | 97.8 | 108
6.32 | CCN(CCCOc1ccc2c(Nc3cc(CC(=O)Nc4cccc(F)c4)[nH]n3)ncnc2c1)CCOP(=O)(O)O [Barasertib] | 7.07 | – | – | – | – | – | – | – | – | – | – | – | – | – | –
– | Cn1c(CCCC(=O)O)nc2cc(N(CCCl)CCCl)ccc21 [Bendamustine] (10000 nM) | – | 101 | 101 | 120 | 99.6 | 108 | 132 | 110 | 114 | 109 | 113 | 107 | 103 | 106 | 96.6
– | C=C(c1ccc(C(=O)O)cc1)c1cc2c(cc1C)C(C)(C)CCC2(C)C [Bexarotene] | 1730 | – | – | – | – | – | – | – | – | – | – | – | – | – | –
– | C=C(c1ccc(C(=O)O)cc1)c1cc2c(cc1C)C(C)(C)CCC2(C)C [Bexarotene] (10000 nM) | – | 100 | 99.9 | 110 | 82.1 | 112 | 98.3 | 79.9 | 82.8 | 105 | 106 | 101 | 80.8 | 95.1 | 59.5
– | COc1cc2nccc(Oc3ccc(NC(=O)C4(C(=O)Nc5ccc(F)cc5)CC4)cc3)c2cc1OC [Cabozantinib] (1000 nM) | – | 102 | 104 | 95.4 | 83.8 | 95.2 | 111 | 104 | 94.6 | 79.2 | 94 | 107 | 89 | 64.6 | 102
– | N.N.[Cl][Pt][Cl] [Cisplatin] (1000 nM) | – | 94.7 | 101 | 106 | 94 | 105 | 87.5 | 96.9 | 94 | 96.3 | 95.3 | 104 | 100 | 99.9 | 101
– | C[C@@H](Oc1cc(-c2cnn(C3CCNCC3)c2)cnc1N)c1c(Cl)ccc(F)c1Cl [Crizotinib] (1000 nM) | – | 103 | 93.1 | 92.2 | 84.9 | 104 | 108 | 99.3 | 102 | 83.9 | 90.7 | 92.7 | 95.9 | 97.4 | 100
– | CN(C)/N=N/c1[nH]cnc1C(N)=O [Dacarbazine] (10000 nM) | – | 107 | 99.4 | 99.9 | 102 | 86 | 135 | 103 | 102 | 111 | 93.4 | 101 | 100 | 103 | 109
– | Cc1ccc(-n2nc(C(C)(C)C)cc2NC(=O)Nc2ccc(OCCN3CCOCC3)c3ccccc23)cc1 [Doramapimod] (10000 nM) | – | 92.7 | 104 | 82.9 | 80.3 | 94.8 | 105 | 75.7 | 94.2 | 87.5 | 82.3 | 96.1 | 97.8 | 70.2 | 68.7
– | C#Cc1cccc(Nc2ncnc3cc(OCCOC)c(OCCOC)cc23)c1 [Erlotinib] (10000 nM) | – | 101 | 75.4 | 90 | 75.9 | 79.8 | 77 | 69.7 | 30.9 | 83.4 | 66.1 | 40.2 | 85.8 | 78.1 | 92.7
– | COc1cc([C@@H]2c3cc4c(cc3[C@@H](O[C@@H]3O[C@@H]5CO[C@@H](C)O[C@H]5[C@H](O)[C@H]3O)[C@H]3COC(=O)[C@H]23)OCO4)cc(OC)c1O [Etoposide] | 1130 | – | – | – | – | – | – | – | – | – | – | – | – | – | –
– | C[C@]12CC[C@@H]3c4ccc(O)cc4C[C@@H](CCCCCCCCC[S+]([O-])CCCC(F)(F)C(F)(F)F)[C@H]3[C@@H]1CC[C@@H]2O (some centres undefined) [Fulvestrant] (1000 nM) | – | 110 | 99.3 | 95.6 | 99 | 105 | 124 | 104 | 101 | 98.9 | 101 | 95.4 | 103 | 99.3 | 103
– | O=P1(NCCCl)OCCCN1CCCl (centres undefined) [Ifosfamide] (10000 nM) | – | 87.1 | 99.3 | 94.5 | 90.3 | 96.3 | 101 | 86.7 | 91.6 | 90.5 | 94 | 96.3 | 98.7 | 90 | 110
6690 | CC(C)Cn1cnc2c(N)nc3ccccc3c21 [Imiquimod] | – | – | – | – | – | – | – | – | – | – | – | – | – | – | –
– | CC1(C)NC(=O)N(c2ccc([N+](=O)[O-])c(C(F)(F)F)c2)C1=O [Nilutamide] (10000 nM) | – | 97.4 | 93.9 | 102 | 103 | 103 | 76.1 | 112 | 104 | 105 | 95.1 | 99.7 | 104 | 104 | 106
– | Cc1ccc(C(=O)Nc2ccc(CN3CCN(C)CC3)c(C(F)(F)F)c2)cc1C#Cc1cnc2cccnn12 [Ponatinib] (1000 nM) | – | 77.4 | 36 | 77.3 | 30.6 | 41.2 | 47 | 85.4 | 34.4 | 15.5 | 36.5 | 58 | 53.9 | 43.7 | 108
– | Cn1c(Nc2ccc(C(F)(F)F)cc2)nc2cc(Oc3ccnc(-c4ncc(C(F)(F)F)[nH]4)c3)ccc21 [RAF265] (1000 nM) | – | 71.8 | 68.7 | 95.8 | 79.6 | 67.2 | 52.1 | 99.9 | 86.6 | 83.5 | 47.2 | 40.7 | 78.2 | 48 | 73.7
– | CNCc1ccc(-c2[nH]c3cc(F)cc4c3c2CCNC4=O)cc1 [Rucaparib] (10000 nM) | – | 74 | 81.8 | 117 | 80.9 | 97.8 | 93.3 | 71.2 | 82.8 | 75.7 | 85.3 | 93.7 | 93 | 91 | 82.2
– | N[C@@H](CSC(c1ccccc1)(c1ccccc1)c1ccccc1)C(=O)O [S-trityl-L-cysteine] (40000 nM) | – | 92.3 | 106 | 86.2 | 89.6 | 101 | 123 | 100 | 104 | 91.1 | 102 | 101 | 89.6 | 92 | 103
– | O=C1CCC(N2C(=O)c3ccccc3C2=O)C(=O)N1 (centres undefined) [Thalidomide] (10000 nM) | – | 93.3 | 96.7 | 97.2 | 94.6 | 100 | 84.7 | 92.4 | 98.8 | 94.2 | 98.2 | 93.5 | 96.8 | 100 | 101
– | CN[C@@H]1C[C@H]2O[C@@](C)([C@@H]1OC)n1c3ccccc3c3c4c(c5c6ccccc6n2c5c31)C(=O)N[C@H]4O [UCN-01] (10000 nM) | – | 3.81 | 0.77 | 5.51 | 4.43 | 7.18 | 2.83 | 9.37 | 0.69 | 1.54 | 2.74 | 0.55 | 2.67 | 24.1 | 13.7
– | Clc1ccc(Nc2nnc(Cc3ccncc3)c3ccccc23)cc1 [Vatalanib] (10000 nM) | – | 95.2 | 95.5 | 90.3 | 94.5 | 104 | 115 | 105 | 110 | 101 | 98.4 | 106 | 106 | 110 | 91.5
– | Oc1nc(-c2ccc(C(F)(F)F)cc2)nc2c1CSCC2 [XAV-939] (10000 nM) | – | 87.3 | 90.5 | 81.7 | 73 | 92.8 | 66.6 | 94.4 | 84.5 | 74.5 | 86.7 | 95.8 | 95.9 | 89.4 | 80.6
